Tests used:
[1] = test system: increase in intravesical pressure induced by carbachol in anesthetized dog; assay: Effect on the increase in intravesical pressure induced by carbachol in anesthetized dog; type: in vivo, Beagle dogs; conditions: intraduodenal administration
Method: Effect on the increase in intravesical pressure induced by carbachol in anesthetized dog
Female Beagle dogs weighing 8.0-15.0 kg were fasted for 24 hours and maintained under halothane anesthesia. A 12F Foley catheter was lubricated with water soluble jelly, inserted into the urethral orifice and advanced approximately 10 cm until the balloon tip was placed well inside the bladder. The balloon was then inflated with 5 ml of room air and catheter slowly withdrawn just part the first resistance that is felt at the bladder neck. Urine was completely drained out through the catheter, and 30 ml of biological saline was infused. The catheter was connected to pressure transducer, and intravesical pressure was continuously recorded. Intraduodenal administration of test compound (I) inhibited carbachol (1.8 μg/kg)-induced increase in intravesical pressure (IVP).

melting point	SMILES	% inhibition of carbachol-induced increase in IVP ([1]; 0.32 mg/kg, female Beagle dogs under halothane anesthesia, carbachol 1.8 μg/kg)	carbachol (1.8 μg/kg)-induced increase in intravesical pressure (IVP) ([1]; anesthetized female Beagle dogs)
198 to 200 °C	CCOC(=O)COc1ccc(S(=O)(=O)c2ccc(CCNC[C@H](O)c3cccc(Cl)c3)cc2)cc1.Cl	–	–
–	O=S(=O)(c1ccccc1)c1ccc(C[C@@H](CO)NC[C@H](O)COc2ccccc2)cc1 [Test Compound (1), (2S)-2-[((2S)-2-Hydroxy-3-phenoxypropyl)amino]-3-[4-(phenylsulfonyl)phenyl]-1-propanol]	30%	inhibited
